Strand notation (5' to 3'): a small letter for the sugar, then the base; units joined by * are phosphorothioate-linked, units joined directly phosphodiester-linked; [ ] holds rarer units or linkages, { } end groups; capitals alone tell only the bases. d = 2'-deoxy (DNA)
Key:
auto-reactive T cells = conditions: cited from earlier work
[1] = test system: experimental autoimmune encephalomyelitis; conditions: mouse model; cited from earlier work
Lewis Lung carcinoma = Lewis Lung carcinoma model; cited from earlier work
[2] = test system: P815 transfected with IDO; conditions: concomitant administration; cited from earlier work
[3] = test system: PDCs and allogeneic naive CD4+ T cells; assay: In vitro priming of naive CD4+ T cells by allogeneic PDCs: CD4+CD25+Foxp3+ Treg generation (flow cytometry); type: cell-based, human
Description: PDC, B, and T cell isolation. Human PBMC were isolated under IRE-approved protocols from apheresis products of healthy blood donors (Memorial Blood Centers of Minnesota, Minneapolis, Minn.) by Ficoll-Paque density gradient centrifugation. Plasmascytoid dendritic cells (PDCs) were isolated from PBMC using BDCA-4 cell isolation kits and the MACS system, followed by staining and sorting to collect purified Lin-CD11c-CD123+ PDCs, as reported previously (Moseman et al., J Immunol 2004; 173:4433-4442). […] cells were isolated from PBMC using CD4 T cell isolation kits followed by positive selection with CD45RA microbeads. […] B cells were isolated from PBMC with CD19 microbeads and the MACS system to greater than 98% purity of CD19+ B cells. All cell isolations kits and microbeads were from Miltenyi Biotec (Bergisch Gladbach, Germany). Reagents. Phosphorothioate-modified type-A CpG ODN 2216: […] NO:2), type-B CpG ODN 2006: […] NO:3) (sequences are shown 5'-3'; small letters represent phosphorothioate linkage; capital letters represent phosphodiester linkage 3' of the base; bold represents CpGdinucleotides) were from Integrated DNA Technologies (Coralville, Iowa), diluted in PBS, and used at a final concentration of 1 microgran per milliliter (μg/ml). […] Kynurenine (L-KYN, Sigma-Aldrich) was used at a final concentration of 50 μM. In vitro priming of naive CD4+ T cells. CD4+CD45RA+ naive T cells were primed with allogeneic PDCs or irradiated B cells (30 Gy) at a 10:1 ratio (e.g., 2×10^6 naive CD4+ T cells plus 2×105 PDCs per well in 24-well plates) with ODN 2216 or ODN 2006 present in RPMI 1640 medium supplemented with 10% human AB serum. 1 MT and/or KYN were added into CpG ODN-PDC or CpG ODN-B cell mediated naive CD4+ T cell priming cultures as indicated. […] After 7 days, primed T cells in cultures were harvested, assessed for their surface phenotype, intracellular Foxp3 expression, and their function in MLR assays. […] Mean fluorescence intensity (MFI) and positive cell percentages of stained cells were determined by flow cytometry.

[4] = test system: primed CD4+ T cells / naive CD4+ T cells; assay: MLR assays of function of CpG-PDC or CpG-B cell primed CD4+ T cells; type: cell-based, human; conditions: KYN added to priming MLRs containing 1MT
Protocol: In vitro priming of naive CD4+ T cells. CD4+CD45RA+ naive T cells were primed with allogeneic PDCs or irradiated B cells (30 Gy) at a 10:1 ratio (e.g., 2×10^6 naive CD4+ T cells plus 2×105 PDCs per well in 24-well plates) with ODN 2216 or ODN 2006 present in RPMI 1640 medium supplemented with 10% human AB serum. 1 MT and/or KYN were added into CpG ODN-PDC or CpG ODN-B cell mediated naive CD4+ T cell priming cultures as indicated. In some experiments, blocking Abs against CD80, CD86, HLA-DR or the control IgG Ab (R&D Systems, Minneapolis, Minn.) were added to CpG-PDC-mediated naive CD4+ T cell priming cultures at a final Ab concentration ranging from 0.1 to 10 μg/ml. After 7 days, primed T cells in cultures were harvested, assessed for their surface phenotype, intracellular Foxp3 expression, and their function in MLR assays.
MLR assays. […] In all T cell proliferation assays, plates were incubated at 37° C. for 5 days and pulsed with 1 μCi of 3H-thymidine per well for the last 18 hours before harvesting. All determinations were carried out in triplicate and 3H-thymidine incorporation was determined.

OT-I and A1 T cells = assay: Bystander-suppression assays (TDLN IDO+ DCs, OT-I, Tregs, A1 bystander cells); type: cell-based, mouse
Protocol: Isolation of tumor-draining lymph node DCs.
Bystander-suppression assays. All experiments were repeated 3-5 times unless otherwise indicated. OT-I cells were sorted as CD8^+ spleen cells, gated on the CD11c^NEGB220^NEG fraction to exclude DCs. Sorted DCs from TDLN were mixed with 1×10^5 responder cells at a 1:40 ratio in V-bottom culture wells (Nunc). […] Sorted CD4^+ A1 cells (1×10^5) and CD11c^+ DCs (1:40 ratio) from normal CBA spleen were added as bystander cells. […] For transwell assays, 96-Multiwell insert plates (1 uM pore size, BD Falcon) were used and the number of cells in all groups was doubled.
Feeder layer. Plasmacytoid DCs and Tregs have been reported to require survival factors to maintain viability and function in vitro.
Readouts for T cell proliferation. […] After 72 hours, assays were stained for CD4 vs CD8 and CFSE fluorescence analyzed gated on CD4^+ (A1) and CD8^+ (OT-I) populations.
Anti-CD3 proliferation and preactivation assays. […] For pre-activation studies, 2×10^4 Tregs were cultured with 1×10^5T-depleted spleen cells plus 0.1 ug/ml αCD3 antibody and 200 U/ml IL-2 (R&D Systems) for 48 hours.

PDCs = assay: Surface expression of CD80, CD86, HLA-DR on PDCs (flow cytometry); type: cell-based, human; conditions: CpG ODN stimulation 48 hours
Description: PDC, B, and T cell isolation. Human PBMC were isolated under IRE-approved protocols from apheresis products of healthy blood donors (Memorial Blood Centers of Minnesota, Minneapolis, Minn.) by Ficoll-Paque density gradient centrifugation. Plasmascytoid dendritic cells (PDCs) were isolated from PBMC using BDCA-4 cell isolation kits and the MACS system, followed by staining and sorting to collect purified Lin-CD11c-CD123+ PDCs, as reported previously (Moseman et al., J Immunol 2004; 173:4433-4442). CD4+CD45RA+ naïve T cells were isolated from PBMC using CD4 T cell isolation kits followed by positive selection with CD45RA microbeads. The purity of naïve CD4+ T cells was greater than 95% for CD4+CD45RA+ expression and less than 0.5% for CD25+ expression. B cells were isolated from PBMC with CD19 microbeads and the MACS system to greater than 98% purity of CD19+ B cells. All cell isolations kits and microbeads were from Miltenyi Biotec (Bergisch Gladbach, Germany).
Flow Cytometry. Fluorescent antibodies (Abs) against human CD3, CD4, CD11c, CD19, CD25, CD40, CD45, CD45RA, CD45RO, CD80, CD86, CD123, HLA-DR, lineage (Lin) markers, and isotype control Abs were from BD Biosciences (San Diego, Calif.). […] Mean fluorescence intensity (MFI) and positive cell percentages of stained cells were determined by flow cytometry.

IDO protein in PDCs = assay: Western blot for IDO protein in cultured PDCs; type: cell-based, human; conditions: 48 hours culture with CpG ODN
Protocol: Western blots. Protein lysates were prepared from 2×10^5 fresh or cultured PDCs or B cells. Western blot was performed with antibody specific for IDO protein

BM3 T cells [5] = assay: Ex vivo T cell suppression assays with sorted Tregs from treated mice; type: in vivo, mouse
Protocol: (§1) CpG Oligonucleotides. CpG-ODNs (CpG no. 1826, […]; (SEQ ID NO:4) and sequence matched non-CpG-B no. 2138, […] (SEQ ID NO:5)) with fully phosphorothioate backbones were purchased from Coley Pharmaceuticals. Mice were injected with relatively high doses of ODNs (50 μg/mouse, i/v) as described (Mellor et al. J Immunol 2005; 175:5601-5605).
1-methyl-[D]-tryptophan (1 mT). 1 mT (catalog number 45, 248-3, Sigma) was prepared as a 20 mM stock solution in 0.1 N NaOH, adjusted to pH 7.4, and stored at −20° C. protected from light. For in vitro use, 1 mT was added to MLRs to a final concentration of 100 μM. For in vivo treatment, slow-release polymer pellets (*5 mg/day) containing 1 mT or vehicle alone were inserted under the dorsal skin as described (Munn et al. Science 1998; 281:1191-1193) 24 hours before CpG treatment.
Preparative flow cytometry to sort CD4+ T cells subsets. CD4+ T cell subsets were purified using a Mo-Flo cytometer as described (Mellor et al. J Immunol 2005; 175:5601-5605; Munn et al. Immunity 2005; 22:1-10).
Ex vivo T cell suppression assays. Suppression assays were performed by adding sorted CD4+ cells to T cell proliferation assays (72 hour thymidine incorporation assays) containing responder H-2K^b-specific splenocytes from BM3 TCR transgenic mice (nylon-wool enriched) and CD11c+ splenocytes (AutoMacs enriched) from CBK (H-2K^b transgenic CBA) mice prepared as described (Mellor et al. J Immunol 2005; 175:5601-5605).

BM3 T cells [6] = assay: Co-adoptive transfer of Tregs and BM3 T cells into CBK recipients; type: in vivo, mouse; conditions: 96 hours
Protocol: Co-Adoptive Transfer. Purified (Mo-Flo sorted) CD4+CD25+ Tregs were prepared from spleens of CBK donor mice treated 24 hours previously with either 50 μg CpG or non-CpG. Tregs (1×10^6/recipient) were mixed with nylon-wool enriched BM3 responder T cells (5×10^6/recipient) and co-injected into CBK recipients (2-3 mice/group). Positive controls were CBK mice receiving BM3 T cells without Tregs; negative controls were CBA mice (lacking target antigen) receiving BM3 T cells. After 96 hours, mice were sacrificed and spleen cells stained with antibodies against CD8 (PerCP), CD25 (APC), H2K^b (PE) and biotinylated Ti98 (BM3 anti-clonotypic antibody, visualized with streptavidin APC (Tarazona et al. (1996) International Immunology 8:351-358). Except for Ti98, all antibodies were from Pharmingen (San Diego, Calif.).

splenic Tregs = assay: Flow cytometry of CHOP and FoxP3 in splenic Tregs of treated mice; type: in vivo, mouse; conditions: wild-type mice
Protocol: as §1
Analytical flow cytometry. Intracellular CHOP staining was performed as described (Munn et al. (2005) Immunity 22:1-10), using antibody sc-7351 (Santa Cruz Biotechnology, Santa Cruz, Calif.).

Compound: COc1ccc(C=CC(=O)Nc2ccccc2C(=O)O)cc1OC [3,4-DAA, N-(3,4,-Dimethoxycinnamoyl)anthranilic acid]
- inflammatory cytokine production by auto-reactive T cells (auto-reactive T cells): inhibit inflammatory cytokine production
- paralysis in experimental autoimmune encephalomyelitis [1]: reverse paralysis

Compound: Nc1c(O)cccc1C(=O)O [3-hydroxyanthranilic acid]
- inflammatory cytokine production by auto-reactive T cells (auto-reactive T cells): inhibit inflammatory cytokine production
- paralysis in experimental autoimmune encephalomyelitis [1]: reverse paralysis

Compound: Cn1cc(C[C@H](N)C(=O)O)c2ccccc21 [Inhibitor 1-MT, 1-methyl-tryptophan]
- tumor outgrowth (Lewis Lung carcinoma): significantly delayed tumor outgrowth
- IDO-mediated prevention of P815 rejection by pre-immunized hosts [2]: substantially reversed

Compound: Nc1ccccc1C(=O)CC(N)C(=O)O (stereo not shown) [KYN, Kynurenine]
- CD4+CD25+Foxp3+ Treg generation in priming MLRs containing 1MT ([3]; KYN 50 μM added with 1MT 250 μM, ODN 2216-PDC, day 7): restored CD4+CD25+Foxp3+ Treg generation
- functional suppressor activity of PDC-primed T cells in MLR [4]: restored the generation of functional suppressor activity
- hyporesponsiveness of primed T cells to alloantigen stimulation in MLR [4]: restored
- bystander suppression with excess kynurenine when IDO blocked with 1MT (OT-I and A1 T cells; 1MT+25 uM kynurenine): did not recapitulate suppression

Compound: N[C@@H](Cc1c[nH]c2ccccc12)C(=O)O [tryptophan]
- IDO-induced bystander suppression, effect of added agent (OT-I and A1 T cells; not in transwells, thymidine incorporation/CFSE, tryptophan 10× (250 uM)): abrogated suppression

Compound: ODN 2216: Phosphorothioate-modified type-A CpG ODN gGGGACGATCGTCgggggG (SEQ ID NO:2) (DNA dG*dGdGdGdAdCdGdAdTdCdGdTdCdG*dG*dG*dG*dG*dG)
- frequency of PDC-induced CD4+CD25+Foxp3+ Tregs ([3]; day 7 of cultures, CpG ODN 1 μg/ml, mean±SD, 5.7±3.1% without CpG ODN): 21.6±5.2%
- cell surface expression of CD80, CD86, HLA-DR on PDCs (PDCs): upregulate cell surface expression
- IDO expression of PDCs during culture (IDO protein in PDCs): sustained their IDO expression

Compound: non-CpG: sequence matched non-CpG ODN TCCATGAGCTTCCTGAGCTT (SEQ ID NO:5) (DNA dT*dC*dC*dA*dT*dG*dA*dG*dC*dT*dT*dC*dC*dT*dG*dA*dG*dC*dT*dT)
- suppressor functions of purified Tregs from IDO-KO mice (BM3 T cells [5]; IDO-KO mice): no significant increase in suppressor functions
- suppression of BM3 T cell proliferation by purified Tregs from treated mice (BM3 T cells [5]; mice treated 24 hours, 50 μg/mouse i/v, IDO-WT, 72 hour thymidine incorporation): did not suppress BM3 proliferation
- spleen tissue pathology after co-transfer of Tregs from treated donor mice (BM3 T cells [6]): did not prevent extensive tissue pathology
- clonal expansion of BM3 T cells in vivo after co-transfer of Tregs from treated donor mice (BM3 T cells [6]; donors treated 24 hours with 50 μg): did not inhibit
- number of CHOP+ Tregs over basal levels (splenic Tregs): only slightly increased
